Results as given in patent US9560852B2, “Combinations of biological control agents and insecticides or fungicides” (Bayer Intellectual Property GmbH, priority 2008, dated 2017).

Key:
Type in all cases: in vivo
[1] = test system: cotton seed; assay: Root system enhancement by neonicotinoid seed treatment, WinRhizo root analysis; conditions: 28 days after planting, fungicide base plus insecticide seed treatment
Procedure: In this experiment cotton seed was treated with a fungicide base and one of three commonly used neonicotinoid insecticides: imidacloprid (sold under the trademark GAUCHO 600@0.375 mg ai/seed), clothianidin (sold under the trademark PONCHO 600@0.375 mg ai/seed), and thiomethoxam (sold under the trademark CRUISER@0.34 mg ai/seed).
Fifty seeds from each of the four treatments were planted. […] Seedlings were harvested 28 days after planting and analyzed using the WinRhizo® root analysis system. There was no significant difference in germination.
In Table 1, a comparison of Length, Surface Area, Volume, and Tips/Forks/Crossings, was made through the analysis of 40-45 plants per treatment and by averaging 10 repetitions bracketing the median for each category.

[2] = Soybean seed treatment in soil infested with Soybean Cyst nematodes, height and WinRhizo root system analysis; conditions: SCN-infested soil versus standard soil, same treatment
From the text: (§1) Soybeans (Variety-S2743-4RR) were planted with a base fungicide package and imidacloprid (sold under the trademark GAUCHO 600@62.5 gm AI/100 kg), a biological nematicide, or a combination of both. The seed were then planted in standard soil and soil infested with Soybean Cyst nematodes. Plants were harvested 28 days later (˜50 plants/treatment/soil type) and compared by height and by a WinRhizo® root system analysis (length, surface area, volume, tips, forks, and crossings (T/F/C))
(§2) The final column of Table 2 compares the total average percent difference in each of the treatments with soybean cyst nematode pressure. The plants with the insecticide alone fared the worst with stunted growth both above and below the soil and a total average reduction of 53%. […] The best overall treatment contained both the biological nematicide and the insecticide and there was only an 8% difference in overall plant development.

[3] = test system: Soybean Cyst nematodes; assay: as above
From the text: as §1, §2

[4] = test system: Soybeans (Variety-S2743-4RR); assay: Soybean seed treatment in standard soil, height and WinRhizo root system analysis; conditions: 28 days
From the text: as §1

[5] = soil infested with Soybean Cyst nematodes (SCN), 28 days

SMILES | Length [1] [a cm] | SurfArea [1] [a cm^2] | T/F/C (Tips/Forks/Crossings) [1] [a] | Volume [1] [a cm^3] | % difference (total average percent difference with soybean cyst nematode pressure) ([2]; listed as NI) [%] | % difference (total average percent difference with soybean cyst nematode pressure) ([2]; listed as insecticide) [%] | direct nematicidal activity ([3]; insecticide alone) | Height [3, 5] [cm] | Length [3, 5] [cm] | SurfArea [3, 5] [cm^2] | T/F/C [3, 5] | Volume [3, 5] [cm^3] | Height [4] [cm] | Length [4] [cm] | SurfArea [4] [cm^2] | T/F/C [4] | Volume [4] [cm^3]
CN/C(=N\[N+](=O)[O-])NCc1cnc(Cl)s1 [Clothianidin, clothianidin] | 88.11 | 16.77 | 93.93 | 0.29 |  |  |  |  |  |  |  |  |  |  |  |  | 
O=[N+]([O-])NC1=NCCN1Cc1ccc(Cl)nc1 [Imidacloprid, imidacloprid] | 92.56 | 20.11 | 85.60 | 0.35 | 52.52 | 53 | no direct nematicidal activity | 19.09 | 167.41 | 44.51 | 283.90 | 0.97 | 26.78 | 281.93 | 66.40 | 497.68 | 1.25
CN1COCN(Cc2cnc(Cl)s2)/C1=N\[N+](=O)[O-] [Thiomethoxam, thiomethoxam] | 95.01 | 17.43 | 77.17 | 0.28 |  |  |  |  |  |  |  |  |  |  |  |  | 
